The target of assay [1] is T1, Leukotriene A-4 hydrolase (Homo sapiens) (UniProt P09960).
T1 sequence (whole entry): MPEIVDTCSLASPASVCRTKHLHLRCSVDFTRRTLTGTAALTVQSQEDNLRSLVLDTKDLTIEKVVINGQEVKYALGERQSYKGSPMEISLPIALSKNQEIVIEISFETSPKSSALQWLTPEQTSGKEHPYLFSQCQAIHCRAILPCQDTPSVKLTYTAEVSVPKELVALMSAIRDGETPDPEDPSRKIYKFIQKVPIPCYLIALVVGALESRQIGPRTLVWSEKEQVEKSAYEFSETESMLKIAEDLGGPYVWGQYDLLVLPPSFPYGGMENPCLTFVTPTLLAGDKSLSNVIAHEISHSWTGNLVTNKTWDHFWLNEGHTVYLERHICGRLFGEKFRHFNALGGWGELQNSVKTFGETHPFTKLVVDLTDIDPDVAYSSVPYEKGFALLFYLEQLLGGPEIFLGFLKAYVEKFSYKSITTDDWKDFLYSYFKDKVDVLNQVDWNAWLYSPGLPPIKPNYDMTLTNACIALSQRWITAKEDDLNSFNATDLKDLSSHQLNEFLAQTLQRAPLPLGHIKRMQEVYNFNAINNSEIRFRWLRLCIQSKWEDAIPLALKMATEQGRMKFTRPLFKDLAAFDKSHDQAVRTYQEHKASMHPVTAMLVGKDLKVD
Nature of the assay: Inhibition of recombinant human full length C-terminal His6-tagged LTA4H expressed in Escherichia coli BL21 DE3 cells assessed as reduction in amino-4-methylcoumarin formation using L-arginine-7-amino-4-methylcoumarin as substrate at 10 uM incubated for 30 mins followed by substrate addition and measured for 30 mins by fluorescence based assay relative to control.

Assay [2] has as its target T2, Bifunctional epoxide hydrolase 2 (Homo sapiens, UniProt P34913).
T2 sequence (P34913 whole entry): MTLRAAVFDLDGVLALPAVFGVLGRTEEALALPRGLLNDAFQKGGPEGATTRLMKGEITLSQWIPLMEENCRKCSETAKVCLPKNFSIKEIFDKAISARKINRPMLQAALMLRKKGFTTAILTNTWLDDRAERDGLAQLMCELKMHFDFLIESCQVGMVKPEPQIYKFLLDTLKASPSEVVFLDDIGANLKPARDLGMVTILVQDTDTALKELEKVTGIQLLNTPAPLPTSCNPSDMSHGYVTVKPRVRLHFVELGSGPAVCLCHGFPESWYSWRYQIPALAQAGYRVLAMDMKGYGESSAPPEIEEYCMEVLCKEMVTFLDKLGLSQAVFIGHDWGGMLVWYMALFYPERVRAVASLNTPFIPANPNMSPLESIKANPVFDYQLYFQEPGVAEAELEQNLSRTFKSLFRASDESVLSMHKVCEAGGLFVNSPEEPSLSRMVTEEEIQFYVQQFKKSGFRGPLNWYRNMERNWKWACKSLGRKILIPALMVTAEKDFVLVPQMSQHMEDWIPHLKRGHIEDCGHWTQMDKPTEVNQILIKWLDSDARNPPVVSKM
Put plainly: Inhibition of recombinant human full length sEH (1 to 555 residues) expressed in Escherichia coli BL21 DE3 cells assessed as reduction in 6-methoxynaphthaldehyde formation using PHOME as substrate incubated for 45 mins followed by substrate addition and measured for 45 mins by fluorescence based assay.

In assay [3] the target is T3, Bifunctional epoxide hydrolase 2 (Homo sapiens) (UniProt P34913).
T3 sequence (whole entry): T2 sequence (P34913 whole entry)
Nature of the assay: Inhibition of recombinant human full length sEH (1 to 555 residues) expressed in Escherichia coli BL21 DE3 cells assessed as reduction in 6-methoxynaphthaldehyde formation using PHOME as substrate at 10 uM incubated for 45 mins followed by substrate addition and measured for 45 mins by fluorescence based assay relative to control.

The target of assay [4] is T4, Leukotriene A-4 hydrolase (Homo sapiens, UniProt P09960).
T4 sequence (P09960 whole entry): T1 sequence (whole entry)
Nature of the assay: Inhibition of recombinant human full length C-terminal His6-tagged LTA4H expressed in Escherichia coli BL21 DE3 cells assessed as reduction in amino-4-methylcoumarin formation using L-arginine-7-amino-4-methylcoumarin as substrate incubated for 30 mins followed by substrate addition and measured for 30 mins by fluorescence based assay.

In the case of `O=C(CCc1ccc(OCc2ccccc2)cc1)Nc1ccc(CCN2CCOCC2)cc1`, the inhibition in assay [1] was determined as 16%. Also, the IC50 in assay [2] is 1.3 µM.
For the molecule `O=C(CCc1ccc(OCc2ccccc2)cc1)Nc1ccc(S(=O)(=O)NCC(F)(F)F)cc1`, the results for the inhibition in assay [1] and in assay [3] were 9% and 6%, respectively.
For the molecule `O=C(CCc1ccc(OCc2ccccc2)cc1)Nc1ccc(OCCN2CCCCCC2)cc1`, in assay [1], the inhibition was 16%. In addition, the IC50 in assay [2] came to 16 µM.
In the case of `O=C(CCc1ccc(OCc2ccccc2)cc1)NCC1CCN(c2cccc(Br)c2)C1` (stereo not given), the inhibition in assay [1] stood at 4%. Besides, the IC50 in assay [2] was 10 µM.
`O=C(CCc1ccc(OCc2ccccc2)cc1)NCCC1CCN(Cc2ccccc2)C1` (stereo not given): the figures for the IC50 in assay [4] and in assay [2] were 3.2 µM and 28 µM, respectively.
As for `CCOP(=O)(OCC)c1ccc(NC(=O)CCc2ccc(OCc3ccccc3)cc2)cc1`, in assay [2], the IC50 amounted to 4.7 µM.
`O=C(CCc1ccc(OCc2ccccc2)cc1)NCC1CCN(Cc2cccs2)CC1`: the IC50 in assay [2] came out at 0.5 µM.
`O=C(CCc1ccc(OCc2ccccc2)cc1)NCC1CCCN(CCc2ccccc2)C1` (stereo not given): the IC50 in assay [2] is 15 µM.
Turning to `O=C(CCc1ccc(OCc2ccccc2)cc1)NCC1CCN(CCCc2ccccc2)CC1`, in assay [4], the IC50 was 18.3 µM. In addition, in assay [3], the inhibition turned out to be 7%.

The inhibition is the change of the read-out against control, counted positive when it falls. What is called IC50 is the midpoint of a concentration-inhibition curve.

Source of the values: ChEMBL document CHEMBL4616705, “Computer-Aided Fragment Growing Strategies to Design Dual Inhibitors of Soluble Epoxide Hydrolase and LTA4 Hydrolase” (ACS Med Chem Lett, 2020).
